Read-outs that look alike come from different tables or passages of the source. Where no end group is shown, it is not given here.
Legend:
[1] = target: T1, PDZ protein NSP (Homo sapiens, UniProt Q92743); assay: PRISM Matrix ELISA modified G assay (pre-incubation), peptide titration; conditions: read-out: EC50 of binding to the PDZ protein NSP
T1 construct: made in house
Experimental: (§1) Two different types of ELISA assays were used to test the HIV Peptides 1904 and 1905. The primary MATRIX screen against all PDZ proteins in the library was performed under pre-incubation conditions, which are a modification of the G assay. A pre-incubation assay incubates the peptide with the HRP-streptavidin before addition of the mixture to the PDZ-coated plate. The subsequent titrations of the peptide against the PDZs of interest were performed under normal ELISA G assay conditions. In normal conditions the peptide is incubated on the PDZ coated plate before the later addition of the HRP-streptavidin. The reagents and supplies for both assays are listed below, as well as the two different protocols.
(§2) The PRISM Matrix ELISA modified G Assay was also used for pre-incubation and for the MATRIX assay. The protocol was as follows.
(§3) 1. Coat plate with 100 μl of 5 μg/ml anti-GST, O/N @ 4° C.
(§4) 2. Dump contents out of plate and tap dry on paper towels
(§5) 3. Block with 200 μl Assay Buffer for 1 to 2 hrs at room temperature
(§6) 4. Prepare proteins in Assay Buffer
(§7) 5. Wash plate 3× with cold PBS*
(§8) 6. Add proteins at 50 μl per well, incubate 1 to 2 hrs at 4° C.
(§9) 7. Prepare peptides in Assay Buffer:
(§10) • Prepare peptides in half of volume need with double of desired concentration. • Dilute HRP (1:1000) in another half of volume (same volume with peptide) then mix with peptides. • Incubate the peptide-HRP mixtures for 20 minutes at RT 8. Wash plate 3× with cold PBS* 9. Add peptide-HRP mixtures at 50 μl per well (write time on plate) 10. Incubate at RT after last peptide has been added for exactly 30 minutes 11. Turn on plate reader and prepare files 12. Promptly wash plate 5× with room temperature PBS 13. Add 100 μl/well TMB substrate (write time on plate) 14. Incubate in dark at room temp for a maximum of 30 minutes 15. Stop reaction with 100 μl of 0.18M H2SO4, 30 min. after adding TMB 16. Take last reading at 450 nm soon after stopping reaction

[2] = target: T2, PDZ protein Rim2 (Homo sapiens, UniProt Q9UQ26); assay: as above; conditions: read-out: EC50 of binding to the PDZ protein Rim2
T2 construct: made in house
T2 sequence (Q9UQ26 632-757): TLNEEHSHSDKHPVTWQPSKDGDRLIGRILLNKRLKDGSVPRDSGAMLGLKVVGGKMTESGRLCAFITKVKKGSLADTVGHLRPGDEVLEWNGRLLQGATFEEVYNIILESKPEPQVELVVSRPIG
Experimental: as §1, §2, §3, §4, §5, §6, §7, §8, §9, §10

[3] = target: T3, PDZ protein ZO-1 d2 (domain 2) (Homo sapiens, UniProt Q07157, DEL264-264); assay: as above; conditions: read-out: EC50 of binding to the PDZ protein ZO-1 d2
T3 construct: made in house
T3 sequence (Q07157 with tags, fused parts or gaps DEL264-264): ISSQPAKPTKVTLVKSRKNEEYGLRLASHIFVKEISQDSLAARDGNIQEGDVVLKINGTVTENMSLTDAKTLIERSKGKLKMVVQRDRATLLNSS
Experimental: as §1, §2, §3, §4, §5, §6, §7, §8, §9, §10

[4] = target: T4, KIAA1284 (Homo sapiens, UniProt Q9ULD6); assay: MATRIX screen against PDZ library (modified G assay); assay type: binding; conditions: pre-incubation conditions
T4 construct: made in house
T4 sequence (Q9ULD6 159-271): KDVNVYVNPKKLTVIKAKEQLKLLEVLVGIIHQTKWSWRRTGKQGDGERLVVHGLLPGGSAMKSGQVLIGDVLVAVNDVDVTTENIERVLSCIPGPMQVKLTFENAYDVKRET
Experimental: (§11) Matrix graphPeptides and proteins were tested in an array format constituting a near complete set (255) of all the different PDZ domains in the human genome. Each PDZ domain polypeptide was expressed as a recombinant GST-PDZ polypeptide in a commercial glutathione S-transferase tagged expression system. Specific binding of biotinylated-PL peptides to PDZ domain polypeptides was detected using streptavidin-HRP and TMB substrate. Similarly, specific binding of PL protein-MBP fusion proteins to PDZ domain polypeptides was visualized using biotinylated anti-MBP, streptavidin-HRP and TMB substrate. The relative strength of binding was analyzed and the strong and weak binders are shown for each PL. A PDZ protein that binds more strongly is preferable when used for capturing or identifying PL proteins.
as §1, §2, §3, §4, §5, §6, §7, §8, §9, §10

[5] = target: T5, MAST2 (Homo sapiens, UniProt Q6P0Q8); assay: as above; assay type: binding; conditions: pre-incubation conditions
T5 construct: made in house
T5 sequence (Q6P0Q8 with tags, fused parts or gaps): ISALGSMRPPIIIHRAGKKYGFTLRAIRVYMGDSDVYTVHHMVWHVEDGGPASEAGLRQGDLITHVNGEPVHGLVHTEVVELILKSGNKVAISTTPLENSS
Experimental: as §11, §1, §2, §3, §4, §5, §6, §7, §8, §9, §10

[6] = target: T6, NSP (Homo sapiens, UniProt Q92743); assay: as above; assay type: binding; conditions: pre-incubation conditions
T6 construct: made in house
T6 sequence (Q92743 359-473): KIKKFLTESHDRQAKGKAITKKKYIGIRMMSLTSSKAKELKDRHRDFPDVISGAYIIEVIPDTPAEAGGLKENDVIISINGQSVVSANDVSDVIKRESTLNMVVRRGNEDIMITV
Experimental: as §11, §1, §2, §3, §4, §5, §6, §7, §8, §9, §10

[7] = target: T7, PAR3 d3 (Homo sapiens, UniProt Q8TEW0, R682S); assay: as above; assay type: binding; conditions: pre-incubation conditions
T7 construct: made in house
T7 sequence (Q8TEW0 with tags, fused parts or gaps R682S): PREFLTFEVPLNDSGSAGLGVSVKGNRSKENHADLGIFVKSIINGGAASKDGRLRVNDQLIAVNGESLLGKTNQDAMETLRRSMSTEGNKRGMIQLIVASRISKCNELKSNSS
Experimental: as §11, §1, §2, §3, §4, §5, §6, §7, §8, §9, §10

[8] = target: T8, SIP1 d1 (Homo sapiens, UniProt Q15599); assay: as above; assay type: binding; conditions: pre-incubation conditions
T8 construct: made in house
T8 sequence (Q15599 with tags, fused parts or gaps): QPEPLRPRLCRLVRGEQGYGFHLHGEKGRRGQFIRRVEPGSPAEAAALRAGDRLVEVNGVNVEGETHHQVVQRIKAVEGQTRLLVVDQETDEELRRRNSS
Experimental: as §11, §1, §2, §3, §4, §5, §6, §7, §8, §9, §10

[9] = modified G assay titration (FIG. 2D, FIG. 3D)
[10] = modified G assay titration (FIG. 2C, FIG. 3C)
[11] = modified G assay titration (FIG. 2B, FIG. 3B)

T1 sequence (Q92743 359-473): as the sequence (Q92743 359-473) above

Substance	EC50 [1, 9]	EC50 ([1]; modified G assay titration, third experiment (FIG. 5, printed as FIG. 3D))	EC50 [2, 10]	EC50 ([2]; modified G assay titration, third experiment (FIG. 5, printed as FIG. 3C))	EC50 [3, 11]	EC50 ([3]; modified G assay titration, third experiment (FIG. 5B))	Intensity of Hit, PDZ KIAA1284 [4]	Intensity of Hit, PDZ MAST2 [5]	Intensity of Hit, PDZ NSP [6]	Intensity of Hit, PDZ PAR3 d3 [7]	Intensity of Hit, PDZ SIP1 d1 [8]
YGRKKRRQRRRRQGFERALL-OH [Peptide 1905]	8 nM	30 nM	14 nM	68 nM	2.8 nM	36 nM	STRONG	STRONG	STRONG	STRONG	STRONG
YGRKKRRQRRRRQGLERILL-OH [Peptide 1904]	14.9 nM		30 nM		25 nM		STRONG	STRONG	STRONG	STRONG	WEAK

From patent US20070014803A1, “METHODS AND COMPOSITIONS FOR DIAGNOSIS AND TREATMENT OF VIRAL AND BACTERIAL INFECTIONS” (Arbor Vita Corporation, priority 2005, published 2007)
